# Experimental data published in patent US20260078119A1, “DEGRADER COMPOUNDS AND USES THEREOF” (Bristol-Myers Squibb Company, priority 2024, published 2026).
# Where two headings read alike, the source gives them in different places.
# Experiments:
# FAK = biological target: T1, FAK (Homo sapiens, UniProt Q05397); experiment: FAK-HiBiT Degradation Assay; type: cell-based; details: for DC50: read-out: FAK HiBiT EC50; for FAK HiBiT Ymin: lower limit of the four parameter fit (value A), Ymax derived using DMSO control, JHH-4-FAK-HiBiT cells, two hours
# T1 construct: homozygous knock-in of a HiBiT tag (Promega Corporation, Madison, WI) to the C-terminus of the FAK gene in its natural genomic locus; endogenous in cells; host or cells: JHH-4-FAK-HiBiT clone d01 (CRISPR-Cas9 knock-in at the endogenous locus)
# Outline: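 JHH-4 cells with homozygous CRISPR knock-in of C-terminal HiBiT on endogenous FAK, treated 2 h at 37 °C with compounds in 10-point 3-fold series from 1 μM. HiBiT lytic luminescence read; EC50 from four-parameter logistic fit, Ymax set by DMSO control, Ymin as lower fit limit.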
# CAL-51 cells = experiment: CAL-51 Cell Proliferation Assay; type: cell-based; details: for EC50: 120 hours incubation, 10-point dose response, 4-fold dilutions starting at 10 μM, Cell-Titer-Glo, read-out: CAL-51 Prolif EC50; for CAL-51 Prolif Ymin: minimal percent of DMSO control observed in the concentrations tested (Ymin-obs), 120 hours
# Outline: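 Cells seeded at 350/well in RPMI complete medium onto 10-point, 4-fold compound dilutions from 10 μM (0.1% DMSO), in duplicate, and grown 120 h at 37 °C. CellTiter-Glo luminescence, blank-subtracted and normalised to DMSO, was fitted with a four-parameter logistic to give EC50; Ymin-obs is the lowest observed percent of DMSO control.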
# [1] = JHH-4-FAK-HiBiT clone d01 cells, two hours incubation, 10-point dose response, 3-fold dilution starting at 1 μM, Nano-Glo HiBiT luminescence
# T1 sequence (Q05397 whole entry): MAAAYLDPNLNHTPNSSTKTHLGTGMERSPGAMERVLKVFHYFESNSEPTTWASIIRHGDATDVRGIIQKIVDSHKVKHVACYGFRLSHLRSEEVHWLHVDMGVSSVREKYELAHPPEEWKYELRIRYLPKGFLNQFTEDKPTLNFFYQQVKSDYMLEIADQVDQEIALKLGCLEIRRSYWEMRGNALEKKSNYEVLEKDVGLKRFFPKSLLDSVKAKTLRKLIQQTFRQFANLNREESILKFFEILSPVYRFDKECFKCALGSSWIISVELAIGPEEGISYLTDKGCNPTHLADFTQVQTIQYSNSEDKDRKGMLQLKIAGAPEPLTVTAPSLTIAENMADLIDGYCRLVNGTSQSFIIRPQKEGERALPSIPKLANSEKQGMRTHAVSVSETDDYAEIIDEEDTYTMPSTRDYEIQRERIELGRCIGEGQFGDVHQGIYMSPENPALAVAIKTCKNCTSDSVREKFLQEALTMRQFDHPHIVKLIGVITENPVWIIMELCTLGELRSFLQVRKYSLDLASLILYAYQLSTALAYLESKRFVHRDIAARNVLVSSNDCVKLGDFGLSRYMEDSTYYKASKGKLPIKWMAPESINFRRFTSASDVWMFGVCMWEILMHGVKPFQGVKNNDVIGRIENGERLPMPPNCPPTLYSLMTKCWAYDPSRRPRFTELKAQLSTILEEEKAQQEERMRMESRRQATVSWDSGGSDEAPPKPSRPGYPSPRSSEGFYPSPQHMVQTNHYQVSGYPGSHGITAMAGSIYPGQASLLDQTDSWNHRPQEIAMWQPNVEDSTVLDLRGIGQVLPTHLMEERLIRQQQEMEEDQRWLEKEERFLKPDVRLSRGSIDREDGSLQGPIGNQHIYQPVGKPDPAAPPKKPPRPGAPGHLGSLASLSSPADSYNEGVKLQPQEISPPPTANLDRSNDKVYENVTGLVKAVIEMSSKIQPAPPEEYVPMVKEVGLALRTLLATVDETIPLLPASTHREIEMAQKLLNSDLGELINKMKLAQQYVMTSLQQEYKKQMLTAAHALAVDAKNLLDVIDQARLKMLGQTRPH
SMILES,DC50 (FAK; [1]),FAK HiBiT Ymin (FAK),EC50 (CAL-51 cells; Homo sapiens),CAL-51 Prolif Ymin (CAL-51 cells),EC50 (FAK; [1]),EC50 (CAL-51 cells)
"COc1cnc(-c2cc(N3CC(F)C3)nc3c2cnn3Cc2ccc3c(c2)CN(C2CCC(=O)NC2=O)C3=O)c(Cl)c1 (centres unmarked) [Example 69, 3-(5-{[4-(3-chloro-5-methoxypyridin-2-yl)-6-(3-fluoroazetidin-1-yl)-1H-pyrazolo[3,4-b]pyridin-1-yl]methyl}-1-oxo-2,3-dihydro-1H-isoindol-2-yl)piperidine-2,6-dione]",5.55 nM,9.26,1.84 nM,23.38,–,–
"O=C1CCC(N2Cc3c(ccc(Cn4ncc5c(-c6ncc(C(F)(F)F)cc6Cl)cc(N6CC(F)C6)nc54)c3F)C2=O)C(=O)N1 (centres unmarked) [Example 40, 3-[5-({4-[3-chloro-5-(trifluoromethyl)pyridin-2-yl]-6-(3-fluoroazetidin-1-yl)-1H-pyrazolo[3,4-b]pyridin-1-yl}methyl)-4-fluoro-1-oxo-2,3-dihydro-1H-isoindol-2-yl]piperidine-2,6-dione]",1.15 nM,6.87,11.2 nM,36.00,–,–
"O=C1CCC(N2Cc3cc(Cn4ncc5c(-c6ncccc6Br)cc(N6CC(F)C6)nc54)ccc3C2=O)C(=O)N1 (centres unmarked) [Example 93, 3-(5-{[4-(3-bromopyridin-2-yl)-6-(3-fluoroazetidin-1-yl)-1H-pyrazolo[3,4-b]pyridin-1-yl]methyl}-1-oxo-2,3-dihydro-1H-isoindol-2-yl)piperidine-2,6-dione]",15.5 nM,16.43,9.36 nM,36.26,–,–
"O=C1CCC(N2Cc3cc(Cn4ncc5c(-c6ncc(C(F)(F)F)cc6Cl)cc(NC6COC6)nc54)ccc3C2=O)C(=O)N1 (centres unmarked) [Example 126, 3-[5-({4-[3-chloro-5-(trifluoromethyl)pyridin-2-yl]-6-[(oxetan-3-yl)amino]-1H-pyrazolo[3,4-b]pyridin-1-yl}methyl)-1-oxo-2,3-dihydro-1H-isoindol-2-yl]piperidine-2,6-dione]",169 nM,89.33,0.47 nM,91.32,–,–
"CCOc1cnc(-c2c(Cl)c(N3CC(F)C3)nc3c2cnn3Cc2ccc3c(c2)CN([C@H]2CCC(=O)NC2=O)C3=O)c(C(F)(F)F)c1 [Example 4, (3S)-3-[5-({5-chloro-4-[5-ethoxy-3-(trifluoromethyl)pyridin-2-yl]-6-(3-fluoroazetidin-1-yl)-1H-pyrazolo[3,4-b]pyridin-1-yl}methyl)-1-oxo-2,3-dihydro-1H-isoindol-2-yl]piperidine-2,6-dione]",0.42 nM,7.37,0.52 nM,1.90,–,–
"N#Cc1cnc(-c2cc(N3CC(F)C3)nc3c2cnn3Cc2ccc3c(c2)CN(C2CCC(=O)NC2=O)C3=O)c(Cl)c1 (centres unmarked) [Example 73, 5-chloro-6-(1-{[2-(2,6-dioxopiperidin-3-yl)-1-oxo-2,3-dihydro-1H-isoindol-5-yl]methyl}-6-(3-fluoroazetidin-1-yl)-1H-pyrazolo[3,4-b]pyridin-4-yl)pyridine-3-carbonitrile]",6.62 nM,11.02,3.39 nM,23.58,–,–
"O=C1CC[C@H](N2Cc3cc(Cn4ncc5c(-c6ncc(F)cc6Cl)cc(N6CC(F)C6)nc54)cc(F)c3C2=O)C(=O)N1 [Example 42, (3S)-3-(5-{[4-(3-chloro-5-fluoropyridin-2-yl)-6-(3-fluoroazetidin-1-yl)-1H-pyrazolo[3,4-b]pyridin-1-yl]methyl}-7-fluoro-1-oxo-2,3-dihydro-1H-isoindol-2-yl)piperidine-2,6-dione]",1.24 nM,5.70,1.92 nM,24.80,–,–
"N#Cc1ccc(-c2c(F)c(N3CC(F)C3)nc3c2cnn3Cc2ccc3c(c2)CN([C@H]2CCC(=O)NC2=O)C3=O)nc1 [Example 75, 6-[1-({2-[(3S)-2,6-dioxopiperidin-3-yl]-1-oxo-2,3-dihydro-1H-isoindol-5-yl}methyl)-5-fluoro-6-(3-fluoroazetidin-1-yl)-1H-pyrazolo[3,4-b]pyridin-4-yl]pyridine-3-carbonitrile]",7.95 nM,23.15,9.67 nM,52.27,–,–
"O=C1CCC(N2Cc3cc(Cn4ncc5c(-c6ncc(C(F)F)cc6Cl)cc(N6CC(F)C6)nc54)ccc3C2=O)C(=O)N1 (centres unmarked) [Example 43, 3-[5-({4-[3-chloro-5-(difluoromethyl)pyridin-2-yl]-6-(3-fluoroazetidin-1-yl)-1H-pyrazolo[3,4-b]pyridin-1-yl}methyl)-1-oxo-2,3-dihydro-1H-isoindol-2-yl]piperidine-2,6-dione]",1.59 nM,6.11,155 nM,51.95,–,–
"CCc1cc2c(-c3ncc(C(F)(F)F)cc3Cl)cc(N3CC(F)C3)nc2n1Cc1ccc2c(c1)CN(C1CCC(=O)NC1=O)C2=O (centres unmarked) [Example 16, 3-(5-((4-(3-chloro-5-(trifluoromethyl)pyridin-2-yl)-2-ethyl-6-(3-fluoroazetidin-1-yl)-1H-pyrrolo[2,3-b]pyridin-1-yl)methyl)-1-oxoisoindolin-2-yl)piperidine-2,6-dione]",≥ 1000 nM,96.37,298 nM,81.53,–,–
"O=C1CCC(N2Cc3cc(Cn4ncc5c(-c6ncc(F)cc6Cl)cc(N6CC(F)C6)nc54)ccc3C2=O)C(=O)N1 (centres unmarked) [Example 56, 3-(5-{[4-(3-chloro-5-fluoropyridin-2-yl)-6-(3-fluoroazetidin-1-yl)-1H-pyrazolo[3,4-b]pyridin-1-yl]methyl}-1-oxo-2,3-dihydro-1H-isoindol-2-yl)piperidine-2,6-dione]",3.72 nM,10.37,1.67 nM,26.66,–,–
"CCOc1cnc(-c2cc(N3CC(F)C3)nc3c2cnn3Cc2ccc3c(c2)CN(C2CCC(=O)NC2=O)C3=O)c(Cl)c1 (centres unmarked) [Example 44, 3-(5-{[4-(3-chloro-5-ethoxypyridin-2-yl)-6-(3-fluoroazetidin-1-yl)-1H-pyrazolo[3,4-b]pyridin-1-yl]methyl}-1-oxo-2,3-dihydro-1H-isoindol-2-yl)piperidine-2,6-dione]",1.73 nM,11.00,0.69 nM,28.22,–,–
"CN(c1cc(-c2ncc(C(F)(F)F)cc2Cl)c2cnn(Cc3ccc4c(c3)CN([C@H]3CCC(=O)NC3=O)C4=O)c2n1)C1CC(O)C1 (stereo partly drawn) [Example 64, (3S)-3-[5-({4-[3-chloro-5-(trifluoromethyl)pyridin-2-yl]-6-{methyl[(1s,3s)-3-hydroxycyclobutyl]amino}-1H-pyrazolo[3,4-b]pyridin-1-yl}methyl)-1-oxo-2,3-dihydro-1H-isoindol-2-yl]piperidine-2,6-dione]",–,9.77,–,32.02,4.29 nM,2.32 nM
"O=C1CCC(N2Cc3cc(Cn4cnc5c(-c6ccc(C(F)(F)F)cc6Cl)cc(N6CC(F)C6)nc54)ccc3C2=O)C(=O)N1 (centres unmarked) [Example 19, 3-(5-((7-(2-chloro-4-(trifluoromethyl)phenyl)-5-(3-fluoroazetidin-1-yl)-3H-imidazo[4,5-b]pyridin-3-yl)methyl)-1-oxoisoindolin-2-yl)piperidine-2,6-dione]",0.86 nM,8.55,0.38 nM,23.48,–,–
"Cc1cc(C(F)(F)F)ccc1-c1cc(N2CC[C@H](O)C2)nc2c1cnn2Cc1ccc2c(c1)CN([C@H]1CCC(=O)NC1=O)C2=O [Example 63, (3S)-3-[5-({6-[(3S)-3-hydroxypyrrolidin-1-yl]-4-[2-methyl-4-(trifluoromethyl)phenyl]-1H-pyrazolo[3,4-b]pyridin-1-yl}methyl)-1-oxo-2,3-dihydro-1H-isoindol-2-yl]piperidine-2,6-dione]",4.08 nM,8.81,1.92 nM,31.58,–,–
"O=C1CCC(N2Cc3cc(Cn4ncc5c(-c6ncccc6Cl)c(F)c(N6CC(F)C6)nc54)ccc3C2=O)C(=O)N1 (centres unmarked) [Example 36, 3-(5-{[4-(3-chloropyridin-2-yl)-5-fluoro-6-(3-fluoroazetidin-1-yl)-1H-pyrazolo[3,4-b]pyridin-1-yl]methyl}-1-oxo-2,3-dihydro-1H-isoindol-2-yl)piperidine-2,6-dione]",0.98 nM,8.36,0.5 nM,24.38,–,–
"O=C1CC[C@H](N2Cc3cc(Cn4ncc5c(-c6ncc(C(F)(F)F)cc6Cl)cc(N6CC(F)C6)nc54)ccc3C2=O)C(=O)N1 [Example 6, (3S)-3-[5-({4-[3-chloro-5-(trifluoromethyl)pyridin-2-yl]-6-(3-fluoroazetidin-1-yl)-1H-pyrazolo[3,4-b]pyridin-1-yl}methyl)-1-oxo-2,3-dihydro-1H-isoindol-2-yl]piperidine-2,6-dione]",0.5 nM,8.05,0.4 nM,31.07,–,–
